Results from patent publication US20250282830A1, “ANTI-VIRAL PEPTIDE COMPOSITIONS AND METHODS TO IMPROVE BIOLOGICAL ACTIVITY THEREOF” (priority 2021, published 2025).
No end group written: not given here.

How the values were obtained:
[1] = test system: DENV-3; assay: Plaque reduction neutralization assay, DENV-3; assay type: cell-based, Dengue virus serotype 3; details: Vero cells; virus pre-incubated with peptide 1 h at 37° C.; read-out: DENV-3 PRNT50
Method: (§1) Vero cells were seeded at 1×10^5 cells per well and incubated overnight. Twofold serial dilutions of peptide were incubated with 200-300 p.f.u. of virus for 1 h at 37° C. Cells were infected with the virus-peptide mixture for 1 h at 37° C. The inoculum was removed and 0.8% (wt/vol) methylcellulose in medium supplemented with 1% FBS was added. After 3-5 days incubation, plates were fixed and analysed for plaques by immunostaining (DENV). For immunostaining, the cells were fixed, followed by incubation with 4G2, a mouse anti-DENV E protein monoclonal antibody (1:2,000 dilution), for 16-20 h. After addition of a secondary antibody, goat anti-mouse IgG (H+L)-HRP conjugate (1:2,000 dilution), the TrueBlue peroxidase substrate (KPL) was added and the optical density was measured at a wavelength of 450 nm. For crystal violet staining, cells were fixed with fixing solution (5% glutaric dialdehyde in Dulbecco's PBS) followed by staining with 0.1% crystal violet in fixing solution. The IC50 value was calculated by comparing the relative number of plaques in peptide-treated samples to virus-only samples using a four-parameter logistic curve fit.

[2] = test system: DENV-2; assay: Plaque reduction neutralization assay, DENV-2; assay type: cell-based, Dengue virus serotype 2; details: Vero cells; virus pre-incubated with peptide 1 h at 37° C.; read-out: DENV-2 PRNT50
Method: as §1

[3] = test system: DENV-1; assay: Plaque reduction neutralization assay, DENV-1; assay type: cell-based, Dengue virus serotype 1; details: Vero cells; virus pre-incubated with peptide 1 h at 37° C.; read-out: DENV-1 PRNT50
Method: as §1

[4] = test system: DENV-4; assay: Plaque reduction neutralization assay, DENV-4; assay type: cell-based, Dengue virus serotype 4; details: Vero cells; virus pre-incubated with peptide 1 h at 37° C.; read-out: DENV-4 PRNT50
Method: as §1

[5] = Time-lapse fluorescence microscopy imaging of peptide-induced vesicle rupture
Method: Highly parallel measurements of peptide-induced liposome rupture were conducted by time-lapsed epifluorescence microscopy imaging. An Eclipse Ti-E inverted microscope (Nikon) with a high-pressure mercury lamp, a CFI Plan Apochromat TIRF×60 oil-immersion objective (NA 1.49; Nikon) and an Andor iXon3 897 EMCCD camera (Andor Technology), was utilized for measurements. The samples were illuminated with a mercury lamp (Intenslight C-HGFIE) using a TRITC filter set. Briefly, glass coverslips were assembled into a microfluidic flow cell, and coated with a thin layer of PLL-g-PEG(-biotin), followed by tethering of 0.025 μg ml^−1 liposomes via biotin-neutravidin coupling. Peptide was then added at a volumetric rate of 100 μl min^−1, and micrographs were recorded every 5-30 s depending on the particular experiment. The initial time was defined by when the peptide solution entered the channel inlet. Data processing and analysis were conducted using ImageJ (National Institutes of Health) and Python(x,y) software packages. The diameter of individual liposomes was estimated based on fluorescence intensity values. […]
Using time-lapse fluorescence microscopy imaging, we further investigated the interactions of different versions of Peptides 2 and 4 with tethered vesicles at the single-vesicle level and saw different degrees of vesicle rupture in terms of total extent and speed (FIG. 14).

Sequence	IC50 [1]	IC50 [2]	IC50 [3]	IC50 [4]	Vesicle rupture time, calcein (Cal) dye release ([5]; 100 nM peptide)	Vesicle rupture time, rhodamine (Rh) dye release ([5]; 100 nM peptide)	Vesicle rupture time, calcein (Cal) dye release ([5]; 1000 nM peptide)	Vesicle rupture time, rhodamine (Rh) dye release ([5]; 1000 nM peptide)	Dependence of vesicle rupture on vesicle size (membrane-curvature sensing), single-vesicle analysis ([5]; small and large tethered vesicles)
SGDWLRIIWDWVCSVVSDFKTWLSAKI [Peptide N6N]	2780 nM	536 nM	162 nM	165 nM	–	–	–	–	–
SDDWLRTIWDWVCSVLADFKAWLSAKI (Synthetic_Anti-viral peptide derived from hepatitis C virus NS5A protein) [Peptide 7]	–	–	–	–	2.41 ± 0.06 min	5.50 ± 0.11 min	1.47 ± 0.01 min	2.13 ± 0.00 min	–
SGSWLRDIWDWICEVLSDFKTWLKAKL [Peptide O1O]	175 nM	242 nM	132 nM	286 nM	–	–	–	–	–
DGNWLYDIWNWVCTVLADFKLWLGAKI (Synthetic_Anti-viral peptide derived from hepatitis C virus NS5A protein) [Peptide 9]	–	–	–	–	4.22 ± 0.17 min	6.50 ± 0.07 min	1.41 ± 0.03 min	1.87 ± 0.014 min	–
GSTWLRDIWDWVCTVLSDFRVWLKSKL [Peptide O110]	490 nM	1160 nM	258 nM	810 nM	–	–	–	–	–
GDDWLHDIWDWVCIVLSDFKTWLSAKI [Peptide N8N]	271 nM	253 nM	97.4 nM	194 nM	–	–	–	–	–
SDDWLRIIWDWVCSVVSDFKAWLSAKI [Peptide N5N]	1380 nM	545 nM	236 nM	338 nM	–	–	–	–	–
GDDWLHDIWDWVCIVLSDFKTWLSAKI (Synthetic_Anti-viral peptide derived from hepatitis C virus NS5A protein) [Peptide 8]	–	–	–	–	2.49 ± 0.06 min	3.28 ± 0.08 min	1.70 ± 0.02 min	1.78 ± 0.02 min	–
AESWLWEVWDWVLHVLSDFKTCLKAKF [Peptide O100]	316 nM	396 nM	60.3 nM	567 nM	–	–	–	–	–
GSTWLRDIWDWVCTVLSDFRVWLKSKL [Peptide N11O]	947 nM	280 nM	131 nM	276 nM	–	–	–	–	–
SGSWLRDVWDWVCTILTDFKNWLTSKL [Peptide N3O]	1020 nM	308 nM	182 nM	288 nM	–	–	–	–	–
DGNWLYDIWNWVCTVLADFKLWLGAKI [Peptide O9O]	119 nM	192 nM	50 nM	139 nM	–	–	–	–	–
GSTWLRDIWDWVCTVLSDFRVWLKSKL [Peptide N11N]	289 nM	924 nM	591 nM	306 nM	–	–	–	–	–
SGSWLRDIWEWVCSILTDFKNWLSAKL [Peptide N4O]	2790 nM	556 nM	278 nM	333 nM	–	–	–	–	–
SDDWLRIIWDWVCSVVSDFKAWLSAKI (Synthetic_Anti-viral peptide derived from hepatitis C virus NS5A protein) [Peptide 5]	–	–	–	–	4.69 ± 0.22 min	15.25 ± 0.43 min	2.53 ± 0.10 min	11.20 ± 0.17 min	–
SGSWLRDIWEWVCSILTDFKNWLSAKL (Synthetic_Anti-viral peptide derived from hepatitis C virus NS5A protein) [Peptide 4]	–	–	–	–	6.50 ± 0.3 min	21.13 ± 0.38 min	3.71 ± 0.07 min	9.51 ± 0.09 min	–
SDDWLRIIWDWVCSVVSDFKAWLSAKI [Peptide O5O]	176 nM	164 nM	37.2 nM	278 nM	–	–	–	–	–
GSTWLRDIWDWVCTVLSDFRVWLKSKL (Synthetic_Anti-viral peptide derived from hepatitis C virus NS5A protein) [Peptide 11]	–	–	–	–	4.15 ± 0.04 min	6.00 ± 0.13 min	4.67 ± 0.08 min	4.91 ± 0.38 min	–

Sequence	IC50 [1]	IC50 [2]	IC50 [3]	IC50 [4]	Vesicle rupture time, calcein (Cal) dye release ([5]; 100 nM peptide)	Vesicle rupture time, rhodamine (Rh) dye release ([5]; 100 nM peptide)	Vesicle rupture time, calcein (Cal) dye release ([5]; 1000 nM peptide)	Vesicle rupture time, rhodamine (Rh) dye release ([5]; 1000 nM peptide)	Dependence of vesicle rupture on vesicle size (membrane-curvature sensing), single-vesicle analysis ([5]; small and large tethered vesicles)
SDDWLRIIWDWVCSVVSDFKAWLSAKI [Peptide N5O]	1590 nM	838 nM	235 nM	649 nM	–	–	–	–	–
AESWLWEVWDWVLHVLSDFKTCLKAKF [Peptide N10N]	259 nM	936 nM	201 nM	720 nM	–	–	–	–	–
SGSWLRDVWDWVCTILTDFKNWLTSKL [Peptide O3O]	237 nM	292 nM	148 nM	267 nM	–	–	–	–	–
AESWLWEVWDWVLHVLSDFKTCLKAKF (Synthetic_Anti-viral peptide derived from hepatitis C virus NS5A protein) [Peptide 10]	–	–	–	–	2.38 ± 0.05 min	10.09 ± 0.10 min	2.06 ± 0.02 min	2.09 ± 0.05 min	–
SGSWLRDIWDWICEVLSDFKTWLKAKL (Synthetic_Anti-viral peptide derived from hepatitis C virus NS5A protein) [Peptide 1]	–	–	–	–	5.95 ± 0.03 min	10.58 ± 0.33 min	4.67 ± 0.32 min	6.13 ± 0.09 min	–
DGNWLYDIWNWVCTVLADFKLWLGAKI [Peptide N9O]	262 nM	185 nM	139 nM	240 nM	–	–	–	–	–
SGSWLRDIWDWICEVLSDFKTWLKAKL [Peptide N1O]	974 nM	363 nM	219 nM	294 nM	–	–	–	–	–
DGNWLYDIWNWVCTVLADFKLWLGAKI [Peptide N9N]	476 nM	550 nM	96.9 nM	80.2 nM	–	–	–	–	–
SGSWLRDIWEWVCSILTDFKNWLSAKL [Peptide N4N]	3880 nM	1350 nM	281 nM	984 nM	–	–	–	–	–
SGDWLRIIWDWVCSVVSDFKTWLSAKI (Synthetic_Anti-viral peptide derived from hepatitis C virus NS5A protein) [Peptide 6]	–	–	–	–	2.46 ± 0.02 min	4.75 ± 0.06 min	1.57 ± 0.03 min	2.74 ± 0.03 min	–
SGDWLRIIWDWVCSVVSDFKTWLSAKI [Peptide O6O]	334 nM	412 nM	68 nM	273 nM	–	–	–	–	–
SDDWLRTIWDWVCSVLADFKAWLSAKI [Peptide N7N]	1140 nM	562 nM	171 nM	242 nM	–	–	–	–	–
GDDWLHDIWDWVCIVLSDFKTWLSAKI [Peptide N8O]	648 nM	257 nM	224 nM	343 nM	–	–	–	–	–
SGDWLRIIWDWVCSVVSDFKTWLSAKI [Peptide N6O]	1470 nM	554 nM	218 nM	273 nM	–	–	–	–	–
SGSWLRDVWDWICTVLTDFKTWLQSKL [Peptide 2]	–	–	–	–	5.54 ± 0.30 min	8.69 ± 0.08 min	1.91 ± 0.04 min	3.13 ± 0.12 min	–
SGSWLRDVWDWICTVLTDFKTWLQSKL [O2O] (not fully specified) [Peptide O2O, Peptide 2 with O and O terminal endings]	–	–	–	–	–	–	–	–	have membrane-curvature sensing mechanisms
SGSWLRDVWDWVCTILTDFKNWLTSKL [Peptide 3]	–	–	–	–	4.53 ± 0.17 min	8.41 ± 0.08 min	1.97 ± 0.11 min	2.99 ± 0.03 min	–
